For the series, the system named is WT HAP1 cells. Description: HAP1 WT cytotoxicity (WST-1 assay) with and without UVA. It counts as cell-based. The note with it: for WST-1 raw signal (Figure 5h): replicates. How it is done: Fig. 5 Comparison of G4 ligand photosensitization. […] Vertical axis, fractional survival, horizontal axis log10 drug concentration (M) (f) Representative images of CPD immunofluorescent staining under UV and drug treatment conditions for U2OS cells, quantified from biological duplicates in (g) (h) Scale bar = 100um. U2OS cells were treated with drug or vehicle control, then immediately irradiated with UVA 125 mJ/cm^2; and fixed 1 h later for immunofluorescence staining with CPD antibody. g Distribution of mean intensity of CPD level per cell (total n = in labels), with two biological repeats per condition. Vertical axis, mean CPD intensity per cell, horizontal axis, conditions (h) WT or KO XPA HAP1 cells assayed for cytotoxicity. Vertical axis, fractional survival (WST-1 assay). The horizontal axis, log10 drug concentration (M). Error bars = standard deviation of the mean. Three biological repeats per condition.
Human epidermal keratinocytes (HEKa) cells were sourced from Thermo Fisher Scientific, and were grown in EpiLife™ Medium with HKGS. HAP WT and XPA knockout cell lines (Horizon Discovery) were cultured in IMDM, 10% FCS. Human HCT116 cells, U2OS cells (ATCC) were grown in McCoy’s 5 A medium with 10% FBS and L-glutamine. All cell lines are mycoplasma free and have been authenticated by STR or SNP profiling. CX-5461 was provided by Senhwa Biosciences, Inc. PDS is from Sigma-Aldrich, BRACO-19 from Alfa Chemistry, PhENDC3 is from Sigma-Aldrich, γ -H2AX antibody from Abcam (1:1000 for IF) and CPD antibody (1:1500) from Cosmo Bio Ltd. (Catalog number: CAC-NM-DAD-001). The WST-1 assay was performed as previously described, γ H2AX foci staining was performed as previously described. Immunofluorescence staining of CPD was performed according to the protocol from the manufacturer (Cosmo Bio Ltd).

SMILES strings stand for the structures. Values joined by “and” are separate entries in the source; they are usually repeats but may differ in a detail not shown here. Identical values can stand only once.

In the case of `Cc1cnc(CNC(=O)c2c(=O)c3ccc(N4CCCN(C)CC4)nc3n3c2sc2ccccc23)cn1` [CX-5461], the “WST-1 raw signal (Figure 5h)” value runs as follows: (conc 1.00E-07, 125 mJ/cm2 WT) 0.124 and 0.1238; (conc 1.00E-07, WT No UV) 0.1248 and 0.1255; (conc 1.25E-08, 125 mJ/cm2 WT) 0.124 and 0.1239; (conc 1.25E-08, WT No UV) 2.9461 and 2.8715; (conc 1.56E-09, 125 mJ/cm2 WT) 1.6148 and 1.5014; (conc 1.56E-09, WT No UV) 3.4383 and 3.4235. In addition, the “WST-1 raw signal (Figure 5h)” value by setting is: (conc 2.00E-07, 125 mJ/cm2 WT) 0.1302 and 0.1263; (conc 2.00E-07, WT No UV) 0.1284 and 0.1271; (conc 2.50E-08, 125 mJ/cm2 WT) 0.1237 and 0.1243; (conc 2.50E-08, WT No UV) 0.7915 and 0.7888; (conc 3.13E-09, 125 mJ/cm2 WT) 0.139 and 0.1466; (conc 3.13E-09, WT No UV) 3.3417 and 3.4651. Also, the “WST-1 raw signal (Figure 5h)” value (conc 3.91E-10, 125 mJ/cm2 WT) was 3.3908 and 3.3132; the “WST-1 raw signal (Figure 5h)” value (conc 3.91E-10, WT No UV) is 3.3655 and 3.4278; the “WST-1 raw signal (Figure 5h)” value (conc 5.00E-08, 125 mJ/cm2 WT) was 0.1258 and 0.124; the “WST-1 raw signal (Figure 5h)” value (conc 5.00E-08, WT No UV) was 0.1245 and 0.1268; the “WST-1 raw signal (Figure 5h)” value (conc 6.25E-09, 125 mJ/cm2 WT) was 0.1242 and 0.126; the “WST-1 raw signal (Figure 5h)” value (conc 6.25E-09, WT No UV) is 3.3238 and 3.2658. The “WST-1 raw signal (Figure 5h)” value is 3.145 and 2.7907 (conc 7.81E-10, 125 mJ/cm2 WT); 3.4055 and 3.3833 (conc 7.81E-10, WT No UV). In addition, the “effect of UVA radiation on cytotoxicity” value (with UVA) was “dramatically increased the cytotoxicity”.

Source of the values: PMC9232501, “Results of the phase I CCTG IND.231 trial of CX-5461 in patients with advanced solid tumors enriched for DNA-repair deficiencies” (Nature Communications, 2022).
